Measurements from ChEMBL document CHEMBL1146115, “Synthesis and evaluation of novel heterocyclic inhibitors of GSK-3” (Bioorg Med Chem Lett, 2006).

Molecular target: Glycogen synthase kinase-3 (Homo sapiens, UniProt P49840+P49841)
Experiment: Inhibition of GSK3
Format: protein assay

SMILES | Log IC50
COc1cccc(-n2ccc3c(N/N=C/c4ccncc4)ncnc32)c1 | -7.5
COc1cccc(-c2[nH]nc3c(N/N=C/c4ccncc4)ncnc23)c1 | -8.3
COc1cccc(-c2cn(C)c3c(N/N=C/c4ccncc4)ncnc23)c1 | -6.3
COc1cccc(-n2ncc3c(N/N=C/c4ccncc4)ncnc32)c1 [GW784752X] | -8.2
COc1cccc(-n2cnc3c(N/N=C/c4ccncc4)ncnc32)c1 [GW813360X] | -6.2
COc1cccc(-c2c[nH]c3c(N/N=C/c4ccncc4)ncnc23)c1 [GW814408X] | -8.3
